As a reminder, the GI50 is the concentration that inhibits growth by half. By TGI is commonly meant the concentration at which net growth stops. The low end stands for more potent growth arrest, the high end for less potent growth arrest.

For seven compounds, GI50 and TGI results are on record in PubChem BioAssay (NCI).

Where “and” joins values, the source holds several entries; their conditions need not be identical. Equal entries are not always repeated.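 Compound exposure: 48 hours, 5 concentrations, 96-well plates. GI50: concentration for 50% inhibition of growth. At the TGI there is no net growth.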

Among the test systems are SK-OV-3 ovarian; MDA-MB-435; SK-MEL-5 melanoma; M14 melanoma; OVCAR-5 ovarian; MALME-3M melanoma; HCT-15 colon; UACC-257 melanoma; A549 NSCLC; SF-295 CNS.
Assay in all cases: DTP human tumour cell line panel, 48 h

Take `COc1ccc(N(C)c2nc(N)nc3sc4c(c23)CCCC4)cc1`: the GI50 in the assay on SK-OV-3 ovarian was < 0.013 µM; in the assay on MDA-MB-435, < 0.01 µM; in the assay on SK-MEL-5 melanoma it was < 0.01 µM; with M14 melanoma, < 0.01 µM; in the assay on OVCAR-5 ovarian it was < 0.0125 µM; in the assay with MALME-3M melanoma, < 0.0125 µM. The GI50 in the assay with HCT-15 colon is < 0.01 µM; with UACC-257 melanoma, 8.12 µM; in the assay with A549 NSCLC, < 0.0149 µM; in the assay with SF-295 CNS it was < 0.01 µM. Also, the TGI worked out at 14.2 µM with SK-OV-3 ovarian; 0.505 µM with SK-MEL-5 melanoma; 11.4 µM in the assay on M14 melanoma; 19.5 µM in the assay with OVCAR-5 ovarian; 18.9 µM in the assay on MALME-3M melanoma; 13 µM in the assay with HCT-15 colon. In addition, the TGI with UACC-257 melanoma stood at 26.3 µM; with A549 NSCLC it was 17.3 µM; in the assay with SF-295 CNS it was 13.1 µM.

For the compound `COc1ccc(N=N/C(C(=O)C(F)(F)F)=C(\O)c2ccc(Cl)cc2)cc1`, the GI50 was 14.4 µM with SK-OV-3 ovarian; 2.49 µM with MDA-MB-435; 3.63 µM in the assay with SK-MEL-5 melanoma; 2.84 µM in the assay with M14 melanoma; 12.5 µM in the assay on OVCAR-5 ovarian; 16.1 µM in the assay on MALME-3M melanoma. Moreover, the GI50 in the assay on HCT-15 colon was 4.68 µM; in the assay with UACC-257 melanoma, 4.57 µM; with A549 NSCLC, 3.83 µM; in the assay on SF-295 CNS it was 2.67 µM. In addition, the TGI was 35.3 µM in the assay on SK-OV-3 ovarian; 8.77 µM in the assay with MDA-MB-435; 14.3 µM in the assay with SK-MEL-5 melanoma; 14.9 µM with M14 melanoma; > 100 µM in the assay with OVCAR-5 ovarian; 85.6 µM in the assay with MALME-3M melanoma. In addition, the TGI in the assay on HCT-15 colon is > 100 µM; in the assay with UACC-257 melanoma, 36.2 µM; in the assay on A549 NSCLC it was 16.8 µM; in the assay with SF-295 CNS it was 11.9 µM.

On to `CO[C@H]1C[C@@H]2CC[C@@H](C)[C@@](O)(O2)C(=O)C(=O)N2CCCC[C@H]2C(=O)O[C@H]([C@H](C)C[C@@H]2CC[C@@H](OCCO)[C@H](OC)C2)CC(=O)[C@H](C)C=C(C)[C@@H](O)[C@@H](OC)C(=O)[C@H](C)C[C@H](C)/C=C/C=C/C=C1C`, for which the GI50 in the assay with SK-OV-3 ovarian is < 0.01 µM; in the assay on MDA-MB-435 it was < 0.0332 µM; with SK-MEL-5 melanoma, 1.75 µM; with M14 melanoma, 3.12 µM; with OVCAR-5 ovarian it was < 0.01 µM; in the assay on MALME-3M melanoma, < 0.01 µM. Moreover, the GI50 in the assay on HCT-15 colon is < 0.0115 µM; with UACC-257 melanoma, 5.88 µM; in the assay on A549 NSCLC it was < 0.01 µM; with SF-295 CNS, < 0.01 µM. Besides, the TGI in the assay on SK-OV-3 ovarian came out at 20.5 µM; in the assay on MDA-MB-435, 22.1 µM; with SK-MEL-5 melanoma, 18.1 µM; in the assay on M14 melanoma it was 20.5 µM; with OVCAR-5 ovarian it was 20.3 µM; in the assay on HCT-15 colon it was 18.5 µM. Besides, the TGI with UACC-257 melanoma is 22.2 µM; with A549 NSCLC, 22.3 µM; with SF-295 CNS, 17.3 µM.

In the case of `CCN1CCN(C(=O)[C@]23CCC(C)(C)C[C@@H]2C2=CC[C@@H]4[C@@]5(C)C/C(=C/c6ccncc6)C(=O)C(C)(C)[C@@H]5CC[C@@]4(C)[C@]2(C)CC3)CC1`, the GI50 with SK-OV-3 ovarian was 2.1 µM; in the assay with MDA-MB-435 it was 1.41 µM; in the assay on SK-MEL-5 melanoma, 1.6 µM; with M14 melanoma, 1.54 µM; in the assay with OVCAR-5 ovarian, 1.66 µM; in the assay on MALME-3M melanoma it was 1.65 µM. In addition, the GI50 is 1.25 µM with HCT-15 colon, 1.51 µM in the assay on UACC-257 melanoma, 1.66 µM in the assay with A549 NSCLC and 1.43 µM with SF-295 CNS. Further, the TGI in the assay on SK-OV-3 ovarian amounted to 4.41 µM; with MDA-MB-435 it was 2.81 µM; in the assay with SK-MEL-5 melanoma it was 2.99 µM; in the assay with M14 melanoma it was 3.17 µM; in the assay on OVCAR-5 ovarian, 3.15 µM; in the assay on MALME-3M melanoma it was 3.14 µM. The TGI with HCT-15 colon turned out to be 2.73 µM; with UACC-257 melanoma, 3.28 µM; in the assay with A549 NSCLC, 4.65 µM; in the assay with SF-295 CNS, 2.76 µM.

As for `CCN(CC)Cc1cc2[nH]c3c4ccc(Cl)cc4ncc3c2cc1OC`, the GI50 in the assay with SK-OV-3 ovarian was 14.2 µM and 3.63 µM; with MDA-MB-435 it was 1.78 µM and 1.75 µM; in the assay with SK-MEL-5 melanoma it was 1.61 µM and 1.62 µM; in the assay on M14 melanoma, 1.88 µM; with OVCAR-5 ovarian it was 12.4 µM and 14.5 µM; with MALME-3M melanoma it was 1.72 µM and 1.99 µM. In addition, the GI50 in the assay on HCT-15 colon is 2.05 µM and 2.46 µM; with UACC-257 melanoma, 2.79 µM and 1.82 µM; with A549 NSCLC it was 3.46 µM and 3.16 µM; in the assay with SF-295 CNS it was 4.98 µM and 1.95 µM. Moreover, the concentration for total growth inhibition (TGI) in the assay with SK-OV-3 ovarian is 27.3 µM and 12.1 µM; in the assay on MDA-MB-435, 3.55 µM and 3.4 µM; in the assay on SK-MEL-5 melanoma, 3 µM and 2.98 µM; in the assay with M14 melanoma, 3.59 µM and 3.4 µM; in the assay on OVCAR-5 ovarian, 25.9 µM and 27.5 µM; in the assay with MALME-3M melanoma, 3.33 µM and 3.75 µM. Also, the TGI with HCT-15 colon was 8.66 µM and 6.94 µM; in the assay on UACC-257 melanoma, 6.92 µM and 3.45 µM; in the assay with A549 NSCLC, 13.3 µM and 10.5 µM; with SF-295 CNS, 9.67 µM and 4.01 µM.

As to `COc1nnc2ccc(N3CCC(c4ccc(OCCN5CCN(C)C(=O)[C@H]5C)cc4)CC3)nn12`, the GI50 in the assay on SK-OV-3 ovarian is 0.0774 µM; in the assay with MDA-MB-435, 0.0569 µM; in the assay on SK-MEL-5 melanoma, 0.155 µM; in the assay on M14 melanoma, 0.0934 µM; in the assay with OVCAR-5 ovarian, 0.492 µM; in the assay with MALME-3M melanoma, 0.431 µM. The GI50 is 0.0869 µM with HCT-15 colon, 0.187 µM with UACC-257 melanoma, 0.436 µM with A549 NSCLC and 0.206 µM with SF-295 CNS. Besides, the TGI in the assay with SK-OV-3 ovarian was > 42.1 µM; in the assay on MDA-MB-435, > 100 µM; with SK-MEL-5 melanoma it was 13.7 µM; in the assay on M14 melanoma it was > 100 µM; in the assay with OVCAR-5 ovarian it was > 100 µM; in the assay on MALME-3M melanoma, > 100 µM. Also, the TGI in the assay with HCT-15 colon, in the assay on UACC-257 melanoma, with A549 NSCLC and in the assay on SF-295 CNS was > 100 µM in each case.

With `C#CCOc1ccc2ncnc(Nc3ccc(NC(=O)C=C)cc3)c2c1`, the GI50 was > 100 µM with SK-OV-3 ovarian; 36.2 µM in the assay with MDA-MB-435; > 100 µM in the assay with SK-MEL-5 melanoma; 34.4 µM in the assay on M14 melanoma; > 100 µM in the assay with OVCAR-5 ovarian; 6.23 µM with MALME-3M melanoma. In addition, the GI50 in the assay on HCT-15 colon was 19.2 µM; with UACC-257 melanoma, 56.9 µM; in the assay with A549 NSCLC, > 100 µM; in the assay with SF-295 CNS, > 100 µM. In addition, the TGI in the assay on SK-OV-3 ovarian was > 100 µM; in the assay with MDA-MB-435, > 100 µM; with SK-MEL-5 melanoma it was > 100 µM; with M14 melanoma, > 100 µM; with OVCAR-5 ovarian it was > 100 µM; with MALME-3M melanoma it was 30.2 µM. Further, the TGI in the assay with HCT-15 colon, in the assay with UACC-257 melanoma, in the assay on A549 NSCLC and in the assay with SF-295 CNS was > 100 µM in each case.
